Reference: patent US20160139123A1, “Shear Wave Imaging Method and Installation for Collecting Information on a Soft Solid” (INSTITUT NATIONAL DE LA SANTE ET DE LA RECHERCHE MEDICALE …, priority 2013, published 2016)

Test system: naive CD4 T cells
Experiment: Differentiation induction of naive CD4 T cells (DP8α induction)
Assay type: cell-based, human
Details: for effect on the frequency of DP8α cells: short chain fatty acid added to the induction culture
Description: Naive CD4 T cells are obtained from PBMC or PBL using the EasySep negative selection kit for naive CD4 T cells ([…] technologies).
Monocytes are isolated from PBMC using the CD14 microbeads positive selection kit of Miltenyi.
Immature dendritic cells (iDC) are prepared from monocytes (CD14+) cultured for 3 days with IL-4 (200 IU/ml) and GM-CSF (1000 IU/ml). Said cells are also called mo-iDC (monocyte-derived immature dendritic cells).
Immature DC are co-cultured for a night with thawed F. prausnitzii bacteria at 1:1 ratio in the presence or not of butyrate. The iDC are then added to naive CD4 cells for 5 days in the presence of IL-2.
Alternatively, butyrate is added later, at the same time as naive CD4 T cell.
DP8α induction is measured by a labeling with CD3-PE (phycoerythrin), CD4-FITC, CD8-APC (allophycocyanin) antibodies. The results are compared with those obtained with unstimulated CD4 T cells, CD4 T cells stimulated by iDC alone and CD4 T cells stimulated by iDC loaded with E. coli.

Compound	fraction of naive CD4 T cells that acquire the DP8α phenotype (mean) (butyrate 0.145 mM added to iDC loaded with F. prausnitzii) [%]	effect on the frequency of DP8α cells
CCCC(=O)O [butyrate]	6	–
CC(=O)O [acetate]	–	no or few effect
CCC(=O)O [propionate]	–	no or few effect
